# Reference: patent publication US12433843B2, “Biomolecular composites comprising modified cell ghosts” (National University of Singapore, priority 2017, dated 2025)
# Test system: CT26 mouse colon carcinoma model
# Test: In vivo co-localisation of Cy7 labelled nCVTs, IVIS imaging
# Protocol: The nCVTs labelled with cyanine 7 NHS Monoester dye (Cy7) of Example 7 were compared with similarly labeled liposomes of the same lipid constitution (Liposomes produced for loading and in vitro testing were prepared with 1.95 mg of DPPC and 0.05 mg of Cholesterol. Liposomes produced for in vivo experiments were PEGylated, and prepared with 2.61 mg of DPPC, 1.61 mg of DSPE-PEG2000 and 0.78 mg of cholesterol.) The samples were then injected through the tail vein of a CT26 mouse colon carcinoma model, with tumour formation subcutaneously on the back of the mouse.
# Three groups of mice were injected with Cy7 labelled nCVTs, Cy7 labelled liposomes and free dye. After 24 hours, the mice were imaged using the In Vivo Imaging Systems (IVIS) spectrum.
substance,measurement,setting,value
cyanine 7 NHS Monoester dye [free dye],Relative fluorescence intensity of excised liver and kidney,"24 hours, liposomes are PEGylated",reduced fluorescence intensity
same,"Accumulation of fluorescence at the tumour site (IVIS, whole mice)","tail vein injection, after 24 hours, liposomes are PEGylated",does not accumulate in the tumours
same,Clearance,"tail vein injection, mouse",rapidly cleared
same,Elimination from the mouse,within 24 hours,largely eliminated
